From patent publication US8247170B2, “Detection of penicillin tolerance in Group B Streptococcus: single nucleotide polymorphisms in penicillin binding protein 4” (priority 2008, dated 2012)

Test system: GBS laboratory strains
Experiment: MBC90:MIC90 ratio method of determining antibiotic tolerance
Assay type: cell-based, Group B Streptococcus
Details: for Phenotype: by MBC:MIC ratio; for MBC: 24 h, ≧90% non-viable cells, plate counts after 24 h antibiotic; for MIC: ≧90% growth-inhibited, OD600
Protocol: The inventors ascertained the incidence of antibiotic tolerance in GBS clinical isolates collected from cervicovaginal-rectal swabs, by investigating cell wall inhibitors used to eliminate GBS colonization in pregnant women before delivery as stated by the CDC guidelines. A ratio of the minimum bactericidal concentration (MBC) over minimum inhibitory concentration (MIC) after 24 h of antibiotic incubation or by determining quantitative kill curves has been used to define antibiotic tolerance previously.
The MBC:MIC ratio was calculated for laboratory strains using three β-lactam antibiotics (Penicillin G, Ampicillin, and Cefazolin) and a glycopeptide antibiotic (Vancomycin) (Table 1). Early-log phase cultures of GBS were treated with the individual antibiotics at a concentration of 0.25 to 512×MIC90. The optical density (OD600) of antibiotic treated cultures was used to determine the MIC90 after 24 h and a cell count was used to determine their MBC90. Susceptible, tolerant and intermediate strains were defined by their MBC:MIC ratio of ≦2:1, ≧32:1 and 4:1-16:1 respectively. […] The ratios characterized GBS strains A909 and 2603V/R as Susceptible, O90R as Tolerant, and NEM316 as Intermediate to Penicillin, Ampicillin, and Cefazolin. All four strains were susceptible to Vancomycin.
(I) Bacterial Strains and Culture Conditions. GBS strains A909 (serotype IA), 515 (serotype IA), NEM316 (serotype III), COHI (serotype III), 2603V/R (serotype V) and O90R (non-typable) were used in this study. E. coli Top10 cells were used for the recombination experiments. GBS was cultured in Todd Hewitt broth (THB) or Tryptic Soy 5% sheep blood (TS) media and E. coli in Luria-broth (LB) medium or agar. Antibiotics were used at the following concentrations: for GBS—penicillin G (MIC90 0.06 μg ml^−1), ampicillin (MIC90 0.12 μg ml^−1), vancomycin (MIC90 2 μg ml^−1), cefazolin (MIC90 1 μg ml^−1) and chloramphenicol (5 μg ml^−1); for E. coli—ampicillin (50 μg ml^−1) and chloramphenicol (5 μg ml^−1). Both GBS and E. coli cultures were grown at 37° C. (II) Tolerance Using the MBC:MIC Ratio Method. Three GBS laboratory strains (i.e., A909, NEM316, and O90R) were cultured overnight for 18 h at 37° C. in THB. Subcultures in THB were subsequently grown to exponential phase (OD600˜0.3; i.e. 5×10^5 cfu/ml) at 37° C. Cell cultures were then exposed to different concentrations of antibiotics (Penicillin G, Ampicillin, Cefozolin or Vancomycin). […] Cell cultures were dispersed every 18 h before OD600 was measured to determine the lowest concentration of antibiotic with 90% growth inhibition (MIC90). Antibiotic treated cells (8 μl) from each well were re-suspended into PBS (100 μl) and plated (54 μl) on TS agar plates and allowed to grow for an additional 24 h at 37° C. Cell count was performed to determine the lowest concentration of antibiotic with 90% killing of original inoculums (MBC90). (III) Penicillin Killing and Regrowth Tolerance Assay by Microbroth Dilution. Three GBS laboratory strains (i.e., A909, NEM316, and O90R) were cultured overnight for 18 h at 37° C. in THB. Subcultures in THB were subsequently grown to exponential phase (OD600˜0.3) at 37° C. Cell cultures were then exposed to different concentrations of Penicillin G (Sigma, St. Louis, Mo.). […] Cell cultures were dispersed. A 1:20 dilution of cells was re-plated into new wells containing fresh THB with 500 U Penase (to degrade residual penicillin). Cell cultures were allowed to re-grow for an additional 24 h at 37° C. before the OD600 was measured. (IV) Measuring Cell Viability by Determining ATP Concentration. GBS strains were cultured for 18 h at 37° C. in THB. These cells were inoculated into fresh THB and subsequently allowed to grow to exponential phase (OD600 0.25-0.3) at 37° C. One ml of each culture was centrifuged at 5,000×g for 4 min. The cell pellet was re-suspended in ATP-free water. […]

[1] = Streptococcus, GBS strain 2603V/R
[2] = Streptococcus, GBS strain NEM316

Structure (SMILES): CC1(C)S[C@@H]2[C@H](NC(=O)Cc3ccccc3)C(=O)N2[C@H]1C(=O)O [Penicillin G]
- Ratio (MBC90:MIC90) (GBS strain 2603V/R): 1
- Phenotype (GBS strain 2603V/R): S (MBC:MIC ratio of ≦2:1)
- Phenotype (GBS strain 2603V/R, listed as Penicillin): Susceptible
- Ratio (MBC90:MIC90) (GBS strain A909): 1
- Phenotype (GBS strain A909): S (MBC:MIC ratio of ≦2:1)
- Phenotype (GBS strain A909, listed as Penicillin): Susceptible
- Ratio (MBC90:MIC90) (GBS strain NEM316): 8
- Phenotype (GBS strain NEM316): I (4:1-16:1)
- Phenotype (GBS strain NEM316, listed as Penicillin): Intermediate
- Ratio (MBC90:MIC90) (GBS strain O90R): 32
- Phenotype (GBS strain O90R): PT (≧32:1)
- Phenotype (GBS strain O90R, listed as Penicillin): Tolerant
- MBC [1]: 0.06 mg/L
- MBC (Streptococcus, GBS strain A909): 0.06 mg/L
- MBC [2]: 0.48 mg/L
- MBC (Streptococcus, GBS strain O90R): 3.84 mg/L
- MIC [1]: 0.06 mg/L
- MIC (Streptococcus, GBS strain A909): 0.06 mg/L
- MIC [2]: 0.06 mg/L
- MIC (Streptococcus, GBS strain O90R): 0.12 mg/L
- MIC90 (Streptococcus, for GBS, as stated under culture conditions): 0.06 mg/L
